The target of the assay is T1, recombinant human baculovirus-expressed GST-tagged FASN (Homo sapiens, UniProt P49327).
T1 construct: GST; host or cells: baculovirus expression system (insect cells implied)
Kind of assay: FASN enzyme activity assay: fluorescence-based detection of CoA with CPM. The format is biochemical. The note with it: 5 nM FASN, 150 μM NADPH, 10 μM acetyl-CoA, 25 μM malonyl-CoA, 90 minutes incubation. The method, boiled down:
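GST-tagged human FASN (5 nM, baculovirus-expressed) in 50 mM HEPES pH 7.5 with 150 μM NADPH, 10 μM acetyl-CoA and 25 μM malonyl-CoA, 0.5% DMSO, started with malonyl-CoA and run 90 min. CoA was detected with CPM (30 min; ex 390/em 530 nm). IC50 came from sigmoidal variable-slope fits of % inhibition.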

The structures appear in SMILES notation.

T1 sequence (P49327 whole entry): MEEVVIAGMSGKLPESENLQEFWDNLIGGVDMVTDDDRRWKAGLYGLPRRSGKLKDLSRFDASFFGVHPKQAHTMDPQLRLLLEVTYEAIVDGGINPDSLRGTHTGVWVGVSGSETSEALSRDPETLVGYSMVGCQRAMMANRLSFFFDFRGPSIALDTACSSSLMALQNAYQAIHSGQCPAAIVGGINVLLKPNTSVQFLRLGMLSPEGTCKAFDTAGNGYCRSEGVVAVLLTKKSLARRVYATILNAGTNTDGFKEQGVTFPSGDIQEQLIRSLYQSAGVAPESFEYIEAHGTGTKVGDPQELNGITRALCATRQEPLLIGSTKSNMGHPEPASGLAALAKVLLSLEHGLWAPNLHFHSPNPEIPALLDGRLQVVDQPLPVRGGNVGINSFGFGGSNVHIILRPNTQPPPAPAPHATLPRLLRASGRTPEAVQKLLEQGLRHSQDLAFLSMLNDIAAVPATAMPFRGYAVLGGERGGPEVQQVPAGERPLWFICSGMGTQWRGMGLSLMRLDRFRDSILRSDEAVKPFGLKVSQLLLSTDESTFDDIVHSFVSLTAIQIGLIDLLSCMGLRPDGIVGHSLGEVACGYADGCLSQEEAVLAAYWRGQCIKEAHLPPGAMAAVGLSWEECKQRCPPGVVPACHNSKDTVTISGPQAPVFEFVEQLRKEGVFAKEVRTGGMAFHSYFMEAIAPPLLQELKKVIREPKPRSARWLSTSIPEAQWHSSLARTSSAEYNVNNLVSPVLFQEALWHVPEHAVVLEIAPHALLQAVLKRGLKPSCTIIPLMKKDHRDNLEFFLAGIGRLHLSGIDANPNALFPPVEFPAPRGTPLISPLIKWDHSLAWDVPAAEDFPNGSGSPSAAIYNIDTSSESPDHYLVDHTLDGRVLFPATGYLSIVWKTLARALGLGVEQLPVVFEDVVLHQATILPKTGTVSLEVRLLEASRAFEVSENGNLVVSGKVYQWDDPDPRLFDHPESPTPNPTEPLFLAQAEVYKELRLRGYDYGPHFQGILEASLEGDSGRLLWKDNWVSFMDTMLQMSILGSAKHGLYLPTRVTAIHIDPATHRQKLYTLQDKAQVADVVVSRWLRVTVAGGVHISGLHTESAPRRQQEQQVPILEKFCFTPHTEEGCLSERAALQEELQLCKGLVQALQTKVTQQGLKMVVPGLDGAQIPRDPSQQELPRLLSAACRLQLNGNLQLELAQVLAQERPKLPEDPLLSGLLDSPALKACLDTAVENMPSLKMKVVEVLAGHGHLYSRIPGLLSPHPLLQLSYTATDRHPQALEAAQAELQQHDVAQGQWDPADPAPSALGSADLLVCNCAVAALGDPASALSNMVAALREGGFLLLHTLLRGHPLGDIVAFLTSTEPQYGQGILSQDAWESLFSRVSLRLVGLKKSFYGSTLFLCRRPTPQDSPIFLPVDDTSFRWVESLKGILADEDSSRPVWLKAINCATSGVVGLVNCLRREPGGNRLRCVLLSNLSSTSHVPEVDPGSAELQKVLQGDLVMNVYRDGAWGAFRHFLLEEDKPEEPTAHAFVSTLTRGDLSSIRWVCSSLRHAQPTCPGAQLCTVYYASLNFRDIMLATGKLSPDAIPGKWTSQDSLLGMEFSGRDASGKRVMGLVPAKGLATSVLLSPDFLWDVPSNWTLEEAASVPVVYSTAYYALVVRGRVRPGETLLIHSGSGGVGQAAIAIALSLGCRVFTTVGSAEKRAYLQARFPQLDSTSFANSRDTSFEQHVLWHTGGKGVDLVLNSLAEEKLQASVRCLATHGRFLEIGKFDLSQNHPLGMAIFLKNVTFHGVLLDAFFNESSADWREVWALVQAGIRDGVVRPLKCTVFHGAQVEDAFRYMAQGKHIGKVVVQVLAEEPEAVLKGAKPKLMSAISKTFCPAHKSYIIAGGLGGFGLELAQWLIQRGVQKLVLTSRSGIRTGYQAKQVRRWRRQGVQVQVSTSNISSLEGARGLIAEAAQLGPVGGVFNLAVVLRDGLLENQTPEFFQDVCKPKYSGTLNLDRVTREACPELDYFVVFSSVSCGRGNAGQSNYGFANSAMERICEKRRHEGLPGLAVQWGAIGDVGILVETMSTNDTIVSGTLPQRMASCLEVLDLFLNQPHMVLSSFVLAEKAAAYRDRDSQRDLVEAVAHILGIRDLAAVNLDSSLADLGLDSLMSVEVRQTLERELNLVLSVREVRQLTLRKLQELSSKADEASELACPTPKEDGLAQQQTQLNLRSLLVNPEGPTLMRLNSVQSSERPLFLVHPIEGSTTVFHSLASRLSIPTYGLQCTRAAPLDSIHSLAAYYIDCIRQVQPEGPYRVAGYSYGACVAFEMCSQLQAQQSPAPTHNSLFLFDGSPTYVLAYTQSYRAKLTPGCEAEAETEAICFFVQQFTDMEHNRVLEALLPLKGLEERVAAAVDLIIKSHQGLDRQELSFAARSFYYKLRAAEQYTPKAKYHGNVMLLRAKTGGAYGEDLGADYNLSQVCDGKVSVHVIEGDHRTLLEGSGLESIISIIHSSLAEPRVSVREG

With `Cc1nccc2cc(-c3ccc(C(OCCN4CCCC4)C4CCN(C(=O)[C@H]5CCCO5)CC4)cc3)ccc12` (stereo partly drawn) [Example 90, {4-[[4-(1-Methylisoquinolin-6-yl)phenyl]-(2-pyrrolidin-1-yl-ethoxy)-methyl]-piperidin-1-yl}-(R)-tetrahydrofuran-2-yl-methanone], the IC50 (usually the concentration that gives 50% inhibition) lay within 100 to 999 nM.
For `CCC(=O)N1CCC(C#N)(Cc2ccc(-c3ccc4cccnc4c3OC)cc2)CC1` [Example 92, 4-[4-(8-methoxyquinolin-7-yl)-benzyl]-1-propionylpiperidine-4-carbonitrile], the IC50 lay in the range of 1 to 99 nM.
On to `Cc1c(-c2ccc(CC3CCN(C(=O)[C@H]4CCCO4)CC3)cc2)ccc2nccn12` [Example 93, {4-[4-(5-Methyl-imidazo[1,2-a]pyridin-6-yl)-benzyl]-piperidin-1-yl}-(R)-tetrahydrofuran-2-yl-methanone], for which the IC50 lay within 1 to 99 nM.
As for `CCC(=O)N1CCC(Cc2ccc(-c3ccc4nccn4c3C)cc2)CC1` [Example 94, 1-{4-[4-(5-Methylimidazo[1,2-a]pyridin-6-yl)-benzyl]-piperidin-1-yl}-propan-1-one], the figure is 100 to 999 nM; as for `Cc1c(-c2ccc(CC3CCN(C(=O)C4CC4)CC3)cc2)ccc2nccn12` [Example 95, Cyclopropyl-{4-[4-(5-methylimidazo[1,2-a]pyridin-6-yl)-benzyl]-piperidin-1-yl}-methanone], 100 to 999 nM; as for `Cc1c(-c2ccc(CC3CCN(C(=O)C4(O)CC4)CC3)cc2)ccc2nccn12` [Example 96, (1-Hydroxycyclopropyl)-{4-[4-(5-methylimidazo[1,2-a]pyridin-6-yl)-benzyl]-piperidin-1-yl}-methanone], 1 to 99 nM.
As for `Cc1c(-c2ccc(CC3(F)CCN(C(=O)[C@H]4CCCO4)CC3)cc2)ccc2nccn12` [Example 97, (R)-(4-fluoro-4-(4-(5-methylimidazo[1,2-a]pyridin-6-yl)benzyl)piperidin-1-yl)(tetrahydrofuran-2-yl)methanone], the figure is 1 to 99 nM; as for `O=C(N1CCC(C2(c3ccc(-c4ccc5ncccc5c4)cc3)OCCO2)CC1)C(F)(F)F` [Example 98, 2,2,2-Trifluoro-1-{4-[2-(4-quinolin-6-yl-phenyl)-1,3-dioxolan-2-yl]-piperidin-1-yl}-ethanone], 1000 to 10000 nM; as for `O=C(C1CC1)N1CCC(C2(c3ccc(-c4ccc5ncccc5c4)cc3)OCCO2)CC1` [Example 99, Cyclopropyl-{4-[2-(4-quinolin-6-yl-phenyl)-1,3-dioxolan-2-yl]-piperidin-1-yl}-methanone], 1000 to 10000 nM.
Regarding `CN(C)S(=O)(=O)N1CCC(C2(c3ccc(-c4ccc5ncccc5c4)cc3)OCCO2)CC1` [Example 100, 4-[2-(4-Quinolin-6-yl-phenyl)-1,3-dioxolan-2-yl]-piperidine-1-sulfonic acid dimethylamide], the IC50 was 1000 to 10000 nM.
The result for `CCOC(=O)N1CCC(C2(c3ccc(-c4ccc5ncccc5c4)cc3)OCCO2)CC1` [Example 101, 4-[2-(4-Quinolin-6-yl-phenyl)-1,3-dioxolan-2-yl]-piperidine-1-carboxylic Acid Ethyl Ester] reads 1000 to 10000 nM; that for `CC(C)C(=O)N1CCC(C2(c3ccc(-c4ccc5ncccc5c4)cc3)OCCO2)CC1` [Example 102, 2-Methyl-1-{4-[2-(4-quinolin-6-yl-phenyl)-1,3-dioxolan-2-yl]-piperidin-1-yl}-propan-1-one], 1000 to 10000 nM; that for `CN(C)C(=O)N1CCC(C2(c3ccc(-c4ccc5ncccc5c4)cc3)OCCO2)CC1` [Example 103, 4-[2-(4-Quinolin-6-yl-phenyl)-1,3-dioxolan-2-yl]-piperidine-1-carboxylic acid dimethylamide], 1000 to 10000 nM.
In the case of `CCC(=O)N1CCC(C2(c3ccc(-c4ccc5ncccc5c4)cc3)OCCO2)CC1` [Example 104, 1-{4-[2-(4-Quinolin-6-yl-phenyl)-1,3-dioxolan-2-yl]-piperidin-1-yl}-propan-1-one], the concentration for half-maximal inhibition (IC50) was in the range of 1000 to 10000 nM.
`CCCC(=O)N1CCC(C2(c3ccc(-c4ccc5ncccc5c4)cc3)OCCO2)CC1` [Example 105, 1-{4-[2-(4-Quinolin-6-yl-phenyl)-1,3-dioxolan-2-yl]-piperidin-1-yl}-butan-1-one]: the IC50 was in the range of 1000 to 10000 nM.
Take `CC(=O)N1CCC(C2(c3ccc(-c4ccc5ncccc5c4)cc3)OCCO2)CC1` [Example 106, 1-{4-[2-(4-Quinolin-6-yl-phenyl)-1,3-dioxolan-2-yl]-piperidin-1-yl}-ethanone]: the IC50 was in the range of 1000 to 10000 nM.
Take `O=C(NC1CCCC1)N1CCC(C2(c3ccc(-c4ccc5ncccc5c4)cc3)OCCO2)CC1` [Example 107, 4-[2-(4-Quinolin-6-yl-phenyl)-1,3-dioxolan-2-yl]-piperidine-1-carboxylic Acid Cyclopentylamide]: the IC50 fell in the range of 1000 to 10000 nM.
The result for `c1cnc2ccc(-c3ccc(C4(C5CCN(C6CCOCC6)CC5)OCCO4)cc3)cc2c1` [Example 108, 6-(4-{2-[1-(Tetrahydropyran-4-yl)-piperidin-4-yl]-1,3-dioxolan-2-yl}-phenyl)-quinoline] reads 1000 to 10000 nM.
Regarding `CC(C)C(=O)N1CCC(C(=O)c2ccc(-c3ccc4ncccc4c3)cc2)CC1` [Example 109, 2-Methyl-1-[4-(4-quinolin-6-yl-benzoyl)-piperidin-1-yl]-propan-1-one], the IC50 was 1000 to 10000 nM.
The result for `CC(C)C(=O)N1CCC(C(O)c2ccc(-c3ccc4ncccc4c3)cc2)CC1` (stereo not shown) [Example 110, 1-{4-[Hydroxy-(4-quinolin-6-yl-phenyl)-methyl]-piperidin-1-yl}-2-methyl-propan-1-one] reads 1000 to 10000 nM; that for `CC(C)C(=O)N1CCC(C2(c3ccc(-c4ccc5cccnc5c4)cc3)OCCO2)CC1` [Example 111, 2-Methyl-1-{4-[2-(4-quinolin-7-yl-phenyl)-1,3-dioxolan-2-yl]-piperidin-1-yl}-propan-1-one], 1000 to 10000 nM; that for `O=C(C1CC1)N1CCC(C2(c3ccc(-c4ccc5cccnc5c4)cc3)OCCO2)CC1` [Example 112, Cyclopropyl-{4-[2-(4-quinolin-7-yl-phenyl)-1,3-dioxolan-2-yl]-piperidin-1-yl}-methanone], 1000 to 10000 nM.
As for `CCCC(=O)N1CCC(C2(c3ccc(-c4ccc5cccnc5c4)cc3)OCCO2)CC1` [Example 113, 1-{4-[2-(4-Quinolin-7-yl-phenyl)-1,3-dioxolan-2-yl]-piperidin-1-yl}-butan-1-one], the figure is 1000 to 10000 nM.
On to `CCC(=O)N1CCC(C2(c3ccc(-c4ccc5cccnc5c4)cc3)OCCO2)CC1` [Example 114, 1-{4-[2-(4-Quinolin-7-yl-phenyl)-1,3-dioxolan-2-yl]-piperidin-1-yl}-propan-1-one], for which the IC50 lay within 100 to 999 nM.
The result for `CC(=O)N1CCC(C2(c3ccc(-c4ccc5ccncc5c4)cc3)OCCO2)CC1` [Example 115, 1-{4-[2-(4-Isoquinolin-7-yl-phenyl)-1,3-dioxolan-2-yl]-piperidin-1-yl}-ethanone] reads 1000 to 10000 nM; that for `CCC(=O)N1CCC(C2(c3ccc(-c4ccc5ccncc5c4)cc3)OCCO2)CC1` [Example 116, 1-{4-[2-(4-Isoquinolin-7-yl-phenyl)-1,3-dioxolan-2-yl]-piperidin-1-yl}-propan-1-one], 1000 to 10000 nM; that for `CC(C)C(=O)N1CCC(C2(c3ccc(-c4ccc5ccncc5c4)cc3)OCCO2)CC1` [Example 117, 1-{4-[2-(4-Isoquinolin-7-yl-phenyl)-1,3-dioxolan-2-yl]-piperidin-1-yl}-2-methyl-propan-1-one], 1000 to 10000 nM.
As for `CC(C)C(=O)N1CCC(C2(c3ccc(-c4ccc5cccnc5c4)cc3)OCCCO2)CC1` [Example 121, 2-Methyl-1-{4-[2-(4-quinolin-7-yl-phenyl)-1,3-dioxinan-2-yl]-piperidin-1-yl}-propan-1-one], the figure is 1000 to 10000 nM.
`O=C(C1CC1)N1CCC(C2(c3ccc(-c4ccc5cccnc5c4)cc3)OCCCO2)CC1` [Example 122, Cyclopropyl-{4-[2-(4-quinolin-7-yl-phenyl)-1,3-dioxinan-2-yl]-piperidin-1-yl}-methanone]: the IC50 was in the range of 1000 to 10000 nM.
As for `CCC(=O)N1CCC(C2(c3ccc(-c4ccc5cccnc5c4)cc3)OCCCO2)CC1` [Example 123, 1-{4-[2-(4-Quinolin-7-yl-phenyl)-1,3-dioxinan-2-yl]-piperidin-1-yl}-propan-1-one], the figure is 1000 to 10000 nM; as for `CCC(=O)N1CCC(C(=O)c2ccc(-c3ccc4cccnc4c3)cc2)CC1` [Example 124, 1-[4-(4-Quinolin-7-yl-benzoyl)-piperidin-1-yl]-propan-1-one], 1000 to 10000 nM.
As for `CCC(=O)N1CCC(C(O)c2ccc(-c3ccc4cccnc4c3)cc2)CC1` (stereo not shown) [Example 125, 1-{4-[Hydroxy-(4-quinolin-7-yl-phenyl)-methyl]-piperidin-1-yl}-propan-1-one], the figure is 1 to 99 nM; as for `CCC(=O)N1CCC(C(C)(O)c2ccc(-c3ccc4cccnc4c3)cc2)CC1` (stereo not shown) [Example 126, 1-{4-[1-Hydroxy-1-(4-quinolin-7-yl-phenyl)-ethyl]-piperidin-1-yl}-propan-1-one], 100 to 999 nM; as for `CCC(=O)N1CCC(C(=O)c2ccc(-c3ccc4cnccc4c3)cc2F)CC1` [Example 127, 1-[4-(2-Fluoro-4-isoquinolin-6-yl-benzoyl)-piperidin-1-yl]-propan-1-one], 1 to 99 nM.
`CCC(=O)N1CCC(C(O)c2ccc(-c3ccc4cnccc4c3)cc2F)CC1` (stereo not shown) [Example 128, 1-{4-[(2-Fluoro-4-isoquinolin-6-yl-phenyl)-hydroxy-methyl]-piperidin-1-yl}-propan-1-one]: the IC50 fell in the range of 1 to 99 nM.
As to `CCC(=O)N1CCC(C(=O)c2ccc(-c3ccc4cnccc4c3)cc2)CC1` [Example 129, 1-[4-(4-Isoquinolin-6-yl-benzoyl)-piperidin-1-yl]-propan-1-one], the IC50 lay in the range of 1000 to 10000 nM.
As for `CCC(=O)N1CCC(C(O)c2ccc(-c3ccc4cnccc4c3)cc2)CC1` (stereo not shown) [Example 130, 1-{4-[Hydroxy-(4-isoquinolin-6-yl-phenyl)-methyl]-piperidin-1-yl}-propan-1-one], the figure is 1 to 99 nM.

The values above are taken from patent US11878966B2, “Substituted 4-benzyl and 4-benzoyl piperidine derivates” (89BIO LTD, priority 2015, dated 2024).
